Measured values reported in US12312330B2, “1-((S)-1-(3-chloro-5-fluoro-2-((4-(1h-pyrazol-1-yl)-2-methylquinolin-8-yloxy)methyl)phenyl)ethyl)-imidazolidine-2,4-dione derivatives and related compounds as bradykinin (BK) B2 receptor antagonist for treating skin diseases” (Pharvaris GmbH, priority 2019, dated 2025).

Molecular target: T1, human bradykinin B2 receptor (hB2R) (Homo sapiens, UniProt P30411)
T1 sequence (P30411 1-391): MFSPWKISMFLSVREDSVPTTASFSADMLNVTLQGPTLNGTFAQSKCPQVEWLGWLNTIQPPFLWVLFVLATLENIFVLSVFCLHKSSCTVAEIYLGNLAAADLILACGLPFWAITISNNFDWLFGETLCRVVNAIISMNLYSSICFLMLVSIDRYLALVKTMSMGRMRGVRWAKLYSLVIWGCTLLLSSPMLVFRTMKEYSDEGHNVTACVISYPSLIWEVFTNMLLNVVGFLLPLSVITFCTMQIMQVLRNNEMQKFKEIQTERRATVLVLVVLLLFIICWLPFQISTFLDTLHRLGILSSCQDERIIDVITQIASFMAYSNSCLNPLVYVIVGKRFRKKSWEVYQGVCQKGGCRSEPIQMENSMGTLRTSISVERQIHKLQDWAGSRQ
Assay: human bradykinin B2 receptor calcium mobilization (hB2R-CaM) assay
Type: cell-based
Conditions: antagonism of bradykinin (EC80) induced calcium mobilization, B2 Bradykinin Receptor Stable Cell Line HTS041C, 25 min pre-incubation; read-out: IC50-value towards human bradykinin B2 receptor (hB2R)
Description: The following cell-based human bradykinin B2 receptor calcium mobilization (hB2R-CaM) assay was used to determine the antagonistic activity of compounds selected from the example compounds Nos. 1 to 107 towards human bradykinin B2 receptor (hB2R). The assay is defined herein as a standard in vitro B2 receptor activity assay, which can be used to determine IC50 values of the compounds according to the present invention, e. g. the compounds shown in Examples 1-13.
The antagonistic activity of compounds according to the present invention was investigated with the hB2R-CaM assay using the B2 Bradykinin Receptor Stable Cell Line HTS041C (Eurofins, St. Charles MO) and the FLIPR Calcium 6 Assay Kit (Molecular Devices, Wokingham, UK) according to the instructions of the providers. CaM assay measurements were performed with a Flexstation 3 System (Molecular Devices) which allows the precise addition of compounds (B2R antagonists) and bradykinin (B2R agonist) to the cells and adjacent continuous recording of the time-dependent CaM assay signals.
HTS041C cells were cultured in high glucose DMEM cell culture medium (Lonza) supplemented with 10% heat-inactivated FBS (PAN Biotech), 10 mM HEPES, Penicillin/Streptomycin (200 U/mL, 200 μg/mL), lx non-essential amino acids (Lonza), and 250 μg/mL G418 (Invivogen) in cell incubator at 37° C. in a 5% CO2 atmosphere. One day before the CaM assay experiments cells were seeded in 200 μL DMEM cell culture medium with reduced FBS (5%) and without G418 on clear bottom black 96 well plates (ThermoFisher #165305). Cell starvation was carried out by incubation (37° C., 5% CO2) of 70.000 cells/well for 24 h to 28 h. Immediately prior calcium dye-loading the medium was carefully aspirated and cells were washed with Hank's balanced salt solution (HBSS, Gibco) containing Ca^2+, Mg^2+ and 20 mM HEPES, adjusted to pH 7.4 (HBSS+).
For calcium dye-loading one FLIPR 6 assay aliquot was dissolved in 20 mL HBSS+. 150 μL of the dye loading solution was added to cell plate and incubated for 120 min at 37° C. and 5% CO2. After dye loading the cell plate was immediately transferred to the pre-warmed (37° C.) Flexstation 3 System for CaM assaying.
Freshly prepared compound (B2 receptor antagonists) dilution series (8 pt, n=2) and bradykinin (B2 receptor agonist) solution in non-binding plates (Costar) were transferred to the Flexstation System (source plate) shortly before starting the experiment. Bradykinin was added in EC80 concentration determined in n>3 preliminary experiments with 8 pt concentration response curves (n=8)). CaM assay was executed by Flexstation 3 System starting with recording of calcium-sensitive dye fluorescence in bottom-read Flex modus with ex/em=485 nm/525 nm, cut off(em)=515 nm After 20 s, 50 μL of 4-fold concentrated compound dilutions were added to the cells resulting in a final DMSO (Sigma) concentration of 0.1% in the cell plate. CaM signals were monitored for 80 s after additions for detection of potential agonistic activities. Prior to bradykinin stimulus compound- and vehicle-treated cells were incubated for 25 min at 37° C. within the Flexstation System. Then 50 μL of a 5-fold concentrated bradykinin solution (HBSS+, 0.1% DMSO) was added to trigger CaM signals (Read out: Max-Min values) which were measured for 80 s post bradykinin stimulus.
IC50 determinations were performed by 4 parameter logistic model curve fitting of the 8 pt (n=2) compound concentration response curves using XLFIT (IDBS) software.

First: CCN1C(=O)C(C)N([C@@H](C)c2cc(F)cc(Cl)c2COc2cccc3c(-n4cc(F)cn4)cc(C)nc23)C1=O (single isomer, unassigned) [Compound No. 2]
Second: Cc1cc(-n2cc(F)cn2)c2cccc(OCc3c(Cl)cc(F)cc3[C@H](C)N3C(=O)N(C4CC4)C(=O)C3C)c2n1 (single isomer, unassigned) [compound 30]
The IC50 of the first is higher: 11 to 100 nM for the first, no more than 10 nM for the second. The second is the more potent here.

Compared with `CCN1C(=O)C(C)N([C@@H](C)c2cc(F)cc(Cl)c2COc2cccc3c(-n4cc(F)cn4)cc(C)nc23)C1=O` (single isomer, unassigned) [compound 29], `Cc1cc(-n2cc(F)cn2)c2cccc(OCc3c(Cl)cc(F)cc3[C@H](C)N3C(=O)N(C4CC4)C(=O)C3C)c2n1` (single isomer, unassigned) [compound 31] is higher in IC50: 11 to 100 nM for the first, 101 to 500 nM for the second.

`Cc1cc(-n2cc(F)cn2)c2cccc(OCc3c(Cl)cc(F)cc3[C@H](C)N3C(=O)COCC3C)c2n1` (single isomer, unassigned) [compound 32] and `Cc1cc(-n2cc(F)cn2)c2cccc(OCc3c(Cl)cc(F)cc3[C@H](C)N3CCC(C)C3=O)c2n1` (single isomer, unassigned) [compound 58] fall in the same range of IC50: 11 to 100 nM for the first, 11 to 100 nM for the second.

`Cc1cc(-n2cc(F)cn2)c2cccc(OCc3c(Cl)cc(F)cc3[C@H](C)N3CCOC(C)C3=O)c2n1` (single isomer, unassigned) [compound 35] and `Cc1cc(-n2cc(F)cn2)c2cccc(OCc3c(Cl)cc(F)cc3[C@H](C)N3CCNC3=O)c2n1` [Compound No. 3, (S)-1-(1-(3-chloro-5-fluoro-2-((4-(4-fluoro-1H-pyrazol-1-yl)-2-methylquinolin-8-yloxy)methyl)phenyl)ethyl)imidazolidin-2-one] fall in the same range of IC50: 11 to 100 nM for the first, 11 to 100 nM for the second.

`Cc1cc(-c2ncnn2C)c2cccc(OCc3c(Cl)cc(F)cc3[C@H](C)N3CCOC(C)C3=O)c2n1` (single isomer, unassigned) [compound 48] and `Cc1cc(-c2ncnn2C)c2cccc(OCc3c(Cl)cc(F)cc3[C@H](C)N3CCC(C)C3=O)c2n1` (single isomer, unassigned) [compound 60] cannot be ordered by IC50: no more than 10 nM for the first, no more than 10 nM for the second.

First: COC1CN([C@@H](C)c2cc(F)cc(Cl)c2COc2cccc3c(-n4cc(F)cn4)cc(C)nc23)C(=O)O1 (single isomer, unassigned) [compound 51]
Second: Cc1cc(-n2cc(F)cn2)c2cccc(OCc3c(Cl)cc(F)cc3[C@H](C)N3C[C@@H](C)N(C)C(=O)C3=O)c2n1 [Compound No. 11, (R)-1-((S)-1-(3-chloro-5-fluoro-2-((4-(4-fluoro-1H-pyrazol-1-yl)-2-methylquinolin-8-yloxy)methyl)phenyl)ethyl)-4,5-dimethylpiperazine-2,3-dione]
The IC50 of the first is higher: 11 to 100 nM for the first, no more than 10 nM for the second. The second is the more potent here.

Compared with `COC1CN([C@@H](C)c2cc(F)cc(Cl)c2COc2cccc3c(-n4cc(F)cn4)cc(C)nc23)C(=O)O1` (single isomer, unassigned) [compound 52], `Cc1cc(-n2cc(F)cn2)c2cccc(OCc3c(Cl)cc(F)cc3[C@H](C)N3CCN(C)CC3=O)c2n1` [Compound No. 9, (S)-1-(1-(3-chloro-5-fluoro-2-((4-(4-fluoro-1H-pyrazol-1-yl)-2-methylquinolin-8-yloxy)methyl)phenyl)ethyl)-4-methylpiperazin-2-one] is lower in IC50: 101 to 500 nM for the first, 11 to 100 nM for the second.

`CCN1C(=O)C(C)N([C@@H](C)c2cc(F)cc(Cl)c2COc2cccc3c(-c4ncnn4C)cc(C)nc23)C1=O` (single isomer, unassigned) [compound 53] and `Cc1cc(-c2ncnn2C)c2cccc(OCc3c(Cl)cc(F)cc3[C@H](C)N3C(=O)N(C4CC4)C(=O)C3C)c2n1` (single isomer, unassigned) [compound 55] cannot be ordered by IC50: no more than 10 nM for the first, no more than 10 nM for the second.

`CCN1C(=O)C(C)N([C@@H](C)c2cc(F)cc(Cl)c2COc2cccc3c(-c4ncnn4C)cc(C)nc23)C1=O` (single isomer, unassigned) [compound 54] and `Cc1cc(-c2ncnn2C)c2cccc(OCc3c(Cl)cc(F)cc3[C@H](C)N3C(=O)N(C4CC4)C(=O)C3C)c2n1` (single isomer, unassigned) [compound 56] fall in the same range of IC50: 11 to 100 nM for the first, 11 to 100 nM for the second.

First: Cc1cc(-c2ncnn2C)c2cccc(OCc3c(Cl)cc(F)cc3[C@H](C)N3C(=O)COCC3C)c2n1 (single isomer, unassigned) [compound 70]
Second: Cc1cc(-c2ncnn2C)c2cccc(OCc3c(Cl)cc(F)cc3[C@H](C)N3CC[C@H](O)C3=O)c2n1 [Compound No. 4, (S)-1-((S)-1-(3-chloro-5-fluoro-2-((2-methyl-4-(1-methyl-1H-1,2,4-triazol-5-yl)quinolin-8-yloxy)methyl)phenyl)ethyl)-3-hydroxypyrrolidin-2-one]
The IC50 of the first is higher: 11 to 100 nM for the first, no more than 10 nM for the second.

Compared with `Cc1cc(-n2cc(F)cn2)c2cccc(OCc3c(Cl)cc(F)cc3[C@H](C)N3CC(=O)N(CC(N)=O)C3=O)c2n1` [Compound No. 1, (S)-2-(3-(1-(3-chloro-5-fluoro-2-((4-(4-fluoro-1H-pyrazol-1-yl)-2-methylquinolin-8-yloxy)methyl)phenyl)ethyl)-2,5-dioxoimidazolidin-1-yl)acetamide], `Cc1cc(-n2cc(F)cn2)c2cccc(OCc3c(Cl)cc(F)cc3[C@H](C)N3CC(=O)N(C)[C@@H](C)C3=O)c2n1` [Compound No. 12, (S)-1-((S)-1-(3-chloro-5-fluoro-2-((4-(4-fluoro-1H-pyrazol-1-yl)-2-methylquinolin-8-yloxy)methyl)phenyl)ethyl)-3,4-dimethylpiperazine-2,5-dione] is lower in IC50: 11 to 100 nM for the first, no more than 10 nM for the second.

Compared with `Cc1cc(-c2ncnn2C)c2cccc(OCc3c(Cl)cc(F)cc3[C@H](C)N3CC[C@@H](F)C3=O)c2n1` [Compound No. 5, (R)-1-((S)-1-(3-chloro-5-fluoro-2-((2-methyl-4-(1-methyl-1H-1,2,4-triazol-5-yl)quinolin-8-yloxy)methyl)phenyl)ethyl)-3-fluoropyrrolidin-2-one], `Cc1cc(-c2ncnn2C)c2cccc(OCc3c(Cl)cc(F)cc3[C@H](C)N3CCC[C@@H](O)C3=O)c2n1` [Compound No. 7, (R)-1-((S)-1-(3-chloro-5-fluoro-2-((2-methyl-4-(1-methyl-1H-1,2,4-triazol-5-yl)quinolin-8-yloxy)methyl)phenyl)ethyl)-3-hydroxypiperidin-2-one] is higher in IC50: no more than 10 nM for the first, 11 to 100 nM for the second.

`Cc1cc(-c2ncnn2C)c2cccc(OCc3c(Cl)cc(F)cc3[C@H](C)N3C[C@@H](OC(F)F)CC3=O)c2n1` [Compound No. 6, (S)-1-((S)-1-(3-chloro-5-fluoro-2-((2-methyl-4-(1-methyl-1H-1,2,4-triazol-5-yl)quinolin-8-yloxy)methyl)phenyl)ethyl)-4-(difluoromethoxy)pyrrolidin-2-one] and `Cc1cc(-c2ncnn2C)c2cccc(OCc3c(Cl)cc(F)cc3[C@H](C)N3C[C@@H](O)CCC3=O)c2n1` [Compound No. 8, (S)-1-((S)-1-(3-chloro-5-fluoro-2-((2-methyl-4-(1-methyl-1H-1,2,4-triazol-5-yl)quinolin-8-yloxy)methyl)phenyl)ethyl)-5-hydroxypiperidin-2-one] fall in the same range of IC50: 11 to 100 nM for the first, 11 to 100 nM for the second.

With `Cc1cc(-c2ncnn2C)c2cccc(OCc3c(Cl)cc(F)cc3[C@H](C)N3CCN(C)C(C)(C)C3=O)c2n1` [Compound No. 10, (S)-1-(1-(3-chloro-5-fluoro-2-((2-methyl-4-(1-methyl-1H-1,2,4-triazol-5-yl)quinolin-8-yloxy)methyl)phenyl)ethyl)-3,3,4-trimethylpiperazin-2-one] the IC50 was 11 to 100 nM.
